Patent US7674451B2, “Cosmetic or pharmaceutical composition comprising peptides, uses and treatment processes” (ISP Investments Inc., priority 2002, dated 2010)
Where a SMILES comes first, the peptide text is derived from it.

System: ERG 1-2 molecule
Assay: Cell differentiation marker ERG 1-2 in HaCat keratinocytes, immunofluorescence
Format: cell-based
Conditions: HaCat human keratinocytes, 24 hours

N=C(N)NCCC[C@H](N)C(=O)NCC(=O)N[C@@H](CO)C(=O)O [Arg-Gly-Ser] (H-Arg-Gly-Ser-OH)
quantity of ERG molecules present in the cells (intensity of fluorescence): increases
